Measurements reported in US8754099B2, “Oxadiazole beta carboline derivatives as antidiabetic compounds” (Merck Sharp & Dohme Corp, priority 2010, dated 2014).
pEC50, pIC50, pKi: −log10 of the molar value.

How the values were obtained:
[1] = target: T1, human SSTR3 (Homo sapiens (Human), UniProt P32745); assay: SSTR binding filtration assay (SSTR3); conditions: (3-125I-Tyr11)-SRIF-14 radioligand, CHO-K1 membranes; more active isomer
Description: The receptor-ligand binding assays of all 5 subtype of SSTRs were performed with membranes isolated from Chinese hamster ovary (CHO)-K1 cells stably expressing the cloned human somatostatin receptors in 96-well format as previous reported. (Yang et al. PNAS 95:10836-10841, 1998, Birzin et al. Anal. Biochem. 307:159-166, 2002.) The stable cell lines for SSTR1-SSTR5 were developed by stably transfecting with DNA for all five SSTRs using Lipofectamine. Neomycin-resistant clones were selected and maintained in medium containing 400 μg/mL G418 (Rohrer et al. Science 282:737-740, 1998).
Binding assays were performed using (3-^125I-Tyr11)-SRIF-14 as the radioligand (used at 0.1 nM) and The Packard Unifilter assay plate. The assay buffer consisted of 50 mM TrisHCl (pH 7.8) with 1 mM EGTA, 5 mM MgCl2, leupeptin (10 μg/mL), pepstatin (10 μg/mL), bacitracin (200 μg/mL), and aprotinin (0.5 μg/mL). CHO-K1 cell membranes, radiolabeled somatostatin, and unlabeled test compounds were resuspended or diluted in this assay buffer. Unlabeled test compounds were examined over a range of concentrations from 0.01 nM to 10,000 nM. The Ki values for compounds were determined as described by Cheng and Prusoff Biochem Pharmacol. 22:3099-3108 (1973).

[2] = target: T1, human SSTR3; assay: SSTR3 functional antagonist assay (cAMP, FSK + SS-14, CHO cells); type: cell-based; conditions: 3.5 μM FSK + 100 nM SS-14; more active isomer
Description: The effects of compounds that bind to human and murine SSTR3 with various affinities on the functional activity of the receptor were assessed by measuring cAMP production in the presence of Forskolin (FSK) along or FSK plus SS-14 in SSTR3 expressing CHO cells. FSK acts to induce cAMP production in these cells by activating adenylate cyclases, whereas SS-14 suppresses cAMP production in the SSTR3 stable cells by binding to SSTR3 and the subsequent inhibition of adenylate cyclases via an alpha subunit of GTP-binding protein (Gαi).
To measure the antagonism activity of the compounds, we pre-incubated the human or mouse SSTR3 stable CHO cells with the compounds for 15 rain, followed by a one-hour incubation of the cells with a mixture of 3.5 μM FSK+100 nM SS-14 (in the continuous presence of the compounds). The amount of cAMP produced during the incubation was also quantified with the Lance cAMP assay. The antagonism activity of each compound was reflected both by % Inhibition (its maximum ability to block the action of SS-14) and an EC50 value which is the concentration of the test compound required to suppress the effect of 100 nM SS-14 by 50%. The % Inhibition of each compound was calculated using the following formula: % Inhibition=[1−(unknown cAMP/FSK+SS-14 cAMP)]×100

[3] = target: hERG potassium ion channel (Homo sapiens (Human), UniProt Q12809); assay: MK-499 binding; conditions: more active isomer
[4] = target: T1, human SSTR3; assay: SSTR3 binding Scintillation Proximity Assay (SPA); conditions: 125I-SS14 radioligand, CHO-K1 membranes; more active isomer
Description: The receptor-ligand binding Scintillation Proximity Assay (SPA) (N. D. Cook. Drug Discovery Today 1 (1996), pp. 287-294) for SSTR3 was performed with membranes isolated from Chinese hamster ovary (CHO)-K1 cells stably expressing the cloned human somatostatin receptors. Binding assays were performed in 384 well format using ^125I-SS14 as the radioligand for SSTR3. The assay buffer consisted of 50 mM TrisHCl (pH 7.8) with 1 mM EGTA, 5 mM MgCl2, leupeptin (10 μg/mL), pepstatin (10 μg/mL), bacitracin (200 μg/mL), and aprotinin (0.5 μg/mL). CHO-K1 cell membranes were prebound to SPA beads and incubated with unlabelled test compounds and radiolabeled somatostatin in assay buffer. After 5 hours at room temperature, cpm/well was determined. Test compounds were examined in 10 point titrations over a range of concentrations from 0.00001 nM to 1200 nM. Percent inhibition was determined for each data point using binding in the presence of DMSO as the maximum achievable value. The results were plotted using 4 parameter fit and the inflection point reflecting 50% of the maximum inhibition was reported as the IC50.

T1 sequence (P32745 whole entry): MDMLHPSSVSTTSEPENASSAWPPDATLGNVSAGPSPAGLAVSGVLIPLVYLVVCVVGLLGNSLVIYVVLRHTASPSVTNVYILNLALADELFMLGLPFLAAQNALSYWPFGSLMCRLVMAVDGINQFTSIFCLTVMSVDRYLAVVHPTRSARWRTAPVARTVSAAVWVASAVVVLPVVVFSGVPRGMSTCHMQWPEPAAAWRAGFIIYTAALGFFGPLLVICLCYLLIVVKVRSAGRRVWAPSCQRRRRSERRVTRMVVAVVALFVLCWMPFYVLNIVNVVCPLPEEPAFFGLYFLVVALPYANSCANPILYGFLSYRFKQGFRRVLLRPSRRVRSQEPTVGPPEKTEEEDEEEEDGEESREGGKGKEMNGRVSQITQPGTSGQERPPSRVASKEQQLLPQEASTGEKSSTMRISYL
hERG potassium ion channel, sequence (Q12809 whole entry): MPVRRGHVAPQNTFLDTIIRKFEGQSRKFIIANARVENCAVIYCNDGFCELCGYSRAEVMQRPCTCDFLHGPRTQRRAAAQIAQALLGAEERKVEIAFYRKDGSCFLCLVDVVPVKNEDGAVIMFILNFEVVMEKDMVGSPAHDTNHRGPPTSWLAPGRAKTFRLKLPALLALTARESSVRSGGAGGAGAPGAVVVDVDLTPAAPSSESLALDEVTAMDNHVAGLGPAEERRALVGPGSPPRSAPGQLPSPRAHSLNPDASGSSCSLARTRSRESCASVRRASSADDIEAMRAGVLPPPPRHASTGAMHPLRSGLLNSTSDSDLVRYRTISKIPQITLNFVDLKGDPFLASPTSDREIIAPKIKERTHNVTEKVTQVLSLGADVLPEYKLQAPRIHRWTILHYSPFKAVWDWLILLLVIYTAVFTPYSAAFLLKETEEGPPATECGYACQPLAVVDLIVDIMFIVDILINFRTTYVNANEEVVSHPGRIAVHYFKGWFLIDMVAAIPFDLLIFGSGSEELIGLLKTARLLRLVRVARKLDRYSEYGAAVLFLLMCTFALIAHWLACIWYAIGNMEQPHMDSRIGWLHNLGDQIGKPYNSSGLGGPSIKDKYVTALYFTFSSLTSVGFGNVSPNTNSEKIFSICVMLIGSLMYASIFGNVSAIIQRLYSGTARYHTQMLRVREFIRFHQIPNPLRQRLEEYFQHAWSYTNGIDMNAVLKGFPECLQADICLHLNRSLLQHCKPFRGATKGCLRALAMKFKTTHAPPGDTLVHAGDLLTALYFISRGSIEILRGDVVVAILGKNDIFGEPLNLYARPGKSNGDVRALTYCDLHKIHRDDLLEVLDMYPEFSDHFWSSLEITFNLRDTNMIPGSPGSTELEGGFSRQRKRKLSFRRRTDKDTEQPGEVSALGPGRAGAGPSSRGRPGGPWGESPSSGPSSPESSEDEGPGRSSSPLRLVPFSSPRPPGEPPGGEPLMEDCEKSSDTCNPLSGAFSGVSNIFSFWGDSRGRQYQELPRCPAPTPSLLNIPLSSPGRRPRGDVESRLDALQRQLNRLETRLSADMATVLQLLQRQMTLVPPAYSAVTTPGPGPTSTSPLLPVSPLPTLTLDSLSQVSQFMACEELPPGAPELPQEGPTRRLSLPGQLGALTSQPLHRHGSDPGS

SMILES	pKi [1]	pEC50 [2]	pIC50 [3]	pIC50 [4]
CCOCC1(c2nnc(CCOC)o2)N[C@@H](c2nc(-c3ccc(F)cn3)c[nH]2)Cc2c1[nH]c1ccccc21 (stereo partly shown) [Example 5]	8.57	8.46	4.78	–
CCOCC1(c2nnc(C(C)(C)C)o2)N[C@@H](c2nc(-c3ccc(F)cn3)c[nH]2)Cc2c1[nH]c1ccccc21 (stereo partly shown) [Example 6]	8.59	8.60	4.75	–
CCOCC1(c2nnc(CCOC)o2)N[C@@H](c2nc(-c3ccc(F)c(C)n3)c[nH]2)Cc2c1[nH]c1ccccc21 (stereo partly shown) [Example 7]	9.05	9.05	4.63	–
COCCOCC1(c2nnc(C(C)(C)C)o2)N[C@@H](c2nc(-c3ccc(F)cn3)c[nH]2)Cc2c1[nH]c1ccccc21 (stereo partly shown) [Example 8]	8.85	8.43	4.71	–
CCOCC1(c2nnc(C(C)C)o2)N[C@@H](c2nc(-c3ccc(F)cn3)c[nH]2)Cc2c1[nH]c1ccccc21 (stereo partly shown) [Example 9]	8.60	8.29	4.69	–
COCCOCC1(c2nnc(C3CCOCC3)o2)N[C@@H](c2nc(-c3ccc(F)cn3)c[nH]2)Cc2c1[nH]c1ccccc21 (stereo partly shown) [Example 10]	8.57	8.62	4.63	–
CCOCC1(c2nnc(C3(C)CCCO3)o2)N[C@@H](c2nc(-c3ccc(F)c(C)n3)c[nH]2)Cc2c1[nH]c1ccccc21 (stereo partly shown) [Example 11]	9.30	9.15	4.72	–
COCCOCC1(c2nnc(C)o2)N[C@@H](c2nc(-c3ccc(F)c(C)n3)c[nH]2)Cc2c1[nH]c1ccccc21 (stereo partly shown) [Example 12]	9.40	9.00	4.56	–
COCCOCC1(c2nnc(C3CCOCC3)o2)N[C@@H](c2nc(-c3ccc(F)c(C)n3)c[nH]2)Cc2c1[nH]c1ccccc21 (stereo partly shown) [Example 13]	9.30	9.30	4.71	–
CCOCC1(c2nnc(C(C)C)o2)N[C@@H](c2nc(-c3ccc(F)c(C)n3)c[nH]2)Cc2c1[nH]c1ccccc21 (stereo partly shown) [Example 14]	9.40	8.89	4.73	–
COCCOCC1(c2nnc(C(C)C)o2)N[C@@H](c2nc(-c3ccc(F)c(C)n3)c[nH]2)Cc2c1[nH]c1ccccc21 (stereo partly shown) [Example 15]	9.40	9.22	4.72	–
[2H]C([2H])([2H])COCC1(c2nnc(C)o2)N[C@@H](c2nc(-c3ccc(F)c(C)n3)c[nH]2)Cc2c1[nH]c1ccccc21 (stereo partly shown) [Example 16]	9.22	8.07	4.65	–
COC1CC(C2(c3nnc(C)o3)N[C@@H](c3nc(-c4ccc(F)c(C)n4)c[nH]3)Cc3c2[nH]c2ccccc32)C1 (stereo partly shown) [Example 17]	8.74	8.77	4.67	–
COC1CCC(C2(c3nnc(C)o3)NC(c3nc(-c4ccc(F)c(C)n4)c[nH]3)Cc3c2[nH]c2ccccc32)CC1 (stereo not shown) [Example 18]	9.52	9.22	4.76	–
Cc1nc(-c2c[nH]c([C@H]3Cc4c([nH]c5ccccc45)C(c4nnc(C(C)C)o4)(C4CCOCC4)N3)n2)ccc1F (stereo partly shown) [Example 19]	9.22	9.15	4.80	–
Cc1nnc(C2(C3CCCO3)N[C@@H](c3nc(-c4ccc(F)c(C)n4)c[nH]3)Cc3c2[nH]c2ccccc32)o1 (stereo partly shown) [Example 20]	9.05	8.40	4.77	8.34
Cc1nnc(C2(C3CCCCO3)N[C@@H](c3nc(-c4ccc(F)c(C)n4)c[nH]3)Cc3c2[nH]c2ccccc32)o1 (stereo partly shown) [Example 21]	–	8.51	4.84	8.77
[2H]C([2H])([2H])OC1CC2C(C1)C2C1(c2nnc(C)o2)N[C@@H](c2nc(-c3ccc(F)c(C)n3)c[nH]2)Cc2c1[nH]c1ccccc21 (stereo partly shown) [Example 22]	–	8.80	4.64	8.92
